Non-standard residues stand in square brackets, D forms with d. Residues, ends and D or L forms follow the SMILES beside them. *: point of attachment. Hexanoyl = CCCCCC(=O)*; Ahx = NCCCCCC(=O)O

Data set [1] has as its system rat scopolamine amnesia model. The experiment in a line: Scopolamine Morris water maze study. Type of data set: in vivo. As to conditions: 1 mg/kg SC. As for the experimental part:
Animals were maintained in accordance with the National Institute of Health Guide for the Care and Use of Laboratory Animals. Rats (14-week-old male Sprague Dawley) from Simonsen laboratories (Gilroy, CA) were used in the scopolamine Morris water maze study. This study was performed at Washington State University and procedures were approved by the Washington State University Institutional Animal Care and Use Committee.
Animals were anesthetized with ketamine hydrochloride plus xylazine (70 mg/kg and 7 mg/kg intraperitoneally, respectively). An intracerebroventricular (ICV) guide cannula (PE-60; Clay Adams, Parsippany, NY) was stereotaxically positioned (model 900; David Kopf Instruments, Tujunga, CA) in the right hemisphere of the brain 1.0 mm posterior and 1.5 mm lateral to the bregma. The guide cannula measured 1.5 cm in length with a heat bulge at 2.5 mm from the beveled tip to control insertion depth. Once in position, the cannula was secured to the skull with screws and dental cement. Animals were housed individually and hand-gentled for 6 days of postsurgical recovery. Histologic verification of cannula placement was accomplished by ICV injection of 4 μL cresyl violet after completion of behavioral testing. Animals for which cannulas were improperly placed were removed from the study.
The Morris water maze consisted of a 183-cm diameter, 64-cm deep tank with a clear circular platform (16-cm diameter) placed 30 cm from the maze wall and submerged 1 cm below the surface of the 26.7 °C water. The maze was virtually divided into 4 equal quadrants with the platform centered in 1 quadrant. Eight visual cues were randomly placed on the maze wall and these cues remained consistent throughout the trials.
Animals received either fosgo-AM (1 mg/kg in DMSO) or volume-matched vehicle (DMSO) by subcutaneous (SC) injection 45 min before testing, followed by ICV injection of scopolamine hydrobromide (105 nmol in 4 μL artificial cerebrospinal fluid [aCSF] over a duration of 40 s) 20 min before testing. […]
Probe trials were conducted on day 9 to determine learning persistence. […] The percentage of trial time spent within the platform region, the number of times that the animal crossed into the platform region, and the average distance from the center of the platform region were recorded. The swimming patterns of the rats were recorded using video tracking software (MediaRecorder and EthoVision software, Noldus, VA, USA).
The daily escape latency (defined as the mean latency to find the platform each day) was calculated for each animal. […] Data collected during the probe trials were assessed for normality (Shapiro–Wilk) and homoscedasticity (Brown-Forsythe) and subsequently analyzed using one-way ANOVA with Bonferroni post hoc tests compared with scopolamine + vehicle controls. […]

Data set [2] in a line: Fosgo-AM solubility (turbidity in PBS). Type of data set: physicochemical. Conditions: 1% DMSO, 37 °C, 2 h. As for the experimental part: A fosgo-AM dilution series was produced in DMSO. Compound stocks were added in triplicate to a 96-well plate containing PBS, resulting in 1% DMSO concentration, and were incubated at 37 °C for 2 h. Turbidity in the sample wells was determined by absorbance at 620 nm.

In a further data set the test system is MDCK cells. In words: MDCK cell scatter behavior assay. It counts as cell-based, canine. Conditions: HGF 10 ng/mL + fosgo-AM 10 pM, 100 pM and 1 nM, 24 h, vs HGF alone. As for the experimental part: Madin-Darby canine kidney (MDCK, ATCC CCL-34) cells were grown at 37 °C, 5% CO2 in Eagle’s Minimum Essential Medium (EMEM) + 10% FBS in T-75 flasks until 80% confluent. Cells were then plated at 1400 cells/well in black-walled, clear-bottom 96-well plates and grown at 37 °C under 5% CO2 for 24 h. Growth media were replaced by serum-free media for 2 h before treatment. Treatments containing HGF and fosgo-AM were made in serum-free media and applied in quintuplicates for 24 h at 37 °C under 5% CO2. Cells were then fixed in chilled 100% EtOH at 4 °C for 20 min and then stained with wheat germ agglutinin conjugated to CF488 (WGA488, Biotium, 29,022–1, Fremont, California) at […] in phosphate-buffered saline (PBS) for 30 min at RT to visualize whole-cell surfaces. Cultures were then imaged with an iCys instrument (iCyte, Thor Labs, Newton, New Jersey) and analyzed with the ImageJ (National Institutes of Health) particle count feature. Scattering behavior was quantified by normalizing particle counts against total stained area. […] Data were assessed for normality (Shapiro–Wilk) and homoscedasticity (Brown-Forsythe). The statistical difference from HGF alone was determined by one-way ANOVA with Dunnett’s multiple comparison post-test with an alpha value of 0.05 (Prism, GraphPad).

Data set [3] can be described thus: Simulated intestinal and gastric fluid stability. It counts as in vitro ADME. Conditions: 1 h, 5 µM, 37 °C. As for the experimental part:
Simulated intestinal and gastric fluid studies were contracted to Quintara Discovery Inc, Hayward, California. Simulated intestinal fluid was freshly prepared with 8.7 mM NaOH, 28.65 mM NaH2PO4, 5.85 mM NaCl, with a final pH of 6.8. […] was added to a final concentration of 0.32%. Simulated gastric fluid was prepared with 34.2 mM NaCl. The pH was adjusted to 1.2, and […] was added to a final concentration of 1%. Fosgo-AM was added to the simulated fluids to achieve a concentration of 5 µM. After mixing, samples were transferred to 96-well plates in duplicate (25 μL/well) and incubated at 37 °C. At time 0, 1, 2, and 4 h, 150 μL quench solution (100% acetonitrile with 0.1% formic acid) and bucetin internal standard was added to the appropriate wells. Plates were sealed and centrifuged at 4 °C for 15 min at 4000 rpm. The supernatant was transferred to fresh plates for liquid chromatography/[…] mass spectrometry (LC/MS/MS) analysis. The extent of metabolism was calculated as the disappearance of the test compound compared with the time = 0 incubations.

Where [4] appears, read: probe trial day 9, vs scopolamine + vehicle.

For `CCCCCC(=O)N[C@@H](Cc1ccc(O)cc1)C(=O)N[C@H](C(=O)NCCCCCC(N)=O)[C@@H](C)CC` [fosgo-AM] (Hexanoyl-Tyr-Ile-[Ahx]-NH2), in data set [1] (8-day acquisition, scopolamine ICV), the escape latency entry is on record as “reduced escape latency over time”. For the same compound, in data set [1] (setting [4]), the “frequency of entering the platform zone” value was “significantly improved”, the “mean distance from the center of the platform” value is given as “significantly improved” and the “percentage of time spent in the platform zone” value is “significantly improved”. Besides, the maximum aqueous solubility entry in data set [2] was “less than 50 μg/mL”. Besides, in the data set with MDCK cells, the cell scattering behavior result was “significant cell scattering”. This compound also showed a remaining after exposure in data set [3] (simulated gastric fluid) of 7.8%. This compound also yielded a remaining after exposure in data set [3] (simulated intestinal fluid) of 0.1%.
